{"source": "patent US6410554B1", "about": "“Combination therapy for the treatment of benign prostatic hyperplasia” (Merck & Co., Inc., priority 1998, dated 2002)", "note": "Counter-ions that a name gives are not always drawn.", "data": [{"smiles": "C[C@@H]1OC(=O)N(C(=O)NCCCN2CCC(c3ccc(F)cc3)CC2)[C@H]1c1ccc(F)c(F)c1", "note": "(as salt: hydrochloride)", "values": [{"measurement": "melting point", "result": "80 to 83", "unit": "°C"}]}]}
